Measured values published in the supplement of paper PMC9663587.

Assays:
THZ531 = compound: CN(C)C/C=C/C(=O)Nc1ccc(C(=O)N2CCC[C@@H](Nc3ncc(Cl)c(-c4c[nH]c5ccccc45)n3)C2)cc1 [THZ531]; assay: GR value, 72 h; higher = faster growth (1 = untreated, <0 = killing);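 also: breast cancer and non-malignant breast epithelial lines, nine half-log doses, viable cells counted by Hoechst and LIVE/DEAD dye imaging versus time-zero plates and DMSO controls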
Neratinib/HKI272 = compound: CCOc1cc2ncc(C#N)c(Nc3ccc(OCc4ccccn4)c(Cl)c3)c2cc1NC(=O)/C=C/CN(C)C [Neratinib/HKI272]; assay: as above
Flavopiridol [1] = compound: T1, CN1CC[C@H](c2c(O)cc(O)c3c(=O)cc(-c4ccccc4Cl)oc23)[C@H](O)C1 [Flavopiridol]; assay: as above
THZ1 = compound: CN(C)C/C=C/C(=O)Nc1ccc(C(=O)Nc2cccc(Nc3ncc(Cl)c(-c4c[nH]c5ccccc45)n3)c2)cc1 [THZ1]; assay: as above
[2] = compound: CC(=O)c1c(C)c2cnc(Nc3ccc(N4CCNCC4)cn3)nc2n(C2CCCC2)c1=O; assay: as above
YKL-5-124 = compound: C=CC(=O)Nc1ccc(C(=O)Nc2[nH]nc3c2CN(C(=O)N[C@H](CN(C)C)c2ccccc2)C3(C)C)cc1 [YKL-5-124]; assay: as above
BSJ-03-123 = compound: CC(=O)c1c(C)c2cnc(Nc3ccc(N4CCN(CCOCCOCCOCCNC(=O)COc5cccc6c5C(=O)N(C5CCC(=O)NC5=O)C6=O)CC4)cn3)nc2n(C2CCCC2)c1=O [BSJ-03-123]; assay: as above
LEE011/Ribociclib = compound: CN(C)C(=O)c1cc2cnc(Nc3ccc(N4CCNCC4)cn3)nc2n1C1CCCC1 [LEE011/Ribociclib]; assay: as above
[3] = compound: CCN1CCN(Cc2ccc(Nc3ncc(F)c(-c4cc(F)c5nc(C)n(C(C)C)c5c4)n3)nc2)CC1; assay: as above
[4] = compound: CCc1cnn2c(NCc3ccc[n+]([O-])c3)cc(N3CCCC[C@H]3CCO)nc12; assay: as above
Flavopiridol [5] = compound: T1, Flavopiridol; assay: increase in dead-cell fraction, 72 h; higher = more death;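 also: breast cancer cell lines in 384-well plates, stained with Hoechst plus LIVE/DEAD far red dye and imaged, cells above an LDR intensity threshold counted dead, Hoechst-negative corpses included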
[6] = compound: CCN1CCN(Cc2ccc(Nc3ncc(F)c(-c4cc(F)c5nc(C)n(C(C)C)c5c4)n3)nc2)CC1; assay: as above

MDAMB330
GR value (THZ531; 0.0001 µM): 1.12 GR | GR value (THZ531; 0.0003162 µM): 0.83 GR | GR value (THZ531; 0.001 µM): 0.891 GR | GR value (THZ531; 0.003162 µM): 0.971 GR | GR value (THZ531; 0.01 µM): 0.805 GR | GR value (THZ531; 0.03162 µM): 0.214 GR | GR value (THZ531; 0.1 µM): -0.965 GR | GR value (THZ531; 0.3162 µM): -0.962 GR | GR value (THZ531; 1 µM): -0.968 GR | GR value (Neratinib/HKI272; 0.0003162 µM): 0.967 GR | GR value (Neratinib/HKI272; 0.001 µM): 0.831 GR | GR value (Neratinib/HKI272; 0.003162 µM): 0.218 GR | GR value (Neratinib/HKI272; 0.01 µM): -0.306 GR | GR value (Neratinib/HKI272; 0.03162 µM): -0.546 GR | GR value (Neratinib/HKI272; 0.1 µM): -0.592 GR | GR value (Neratinib/HKI272; 0.3162 µM): -0.599 GR | GR value (Neratinib/HKI272; 1 µM): -0.656 GR | GR value (Neratinib/HKI272; 3.162 µM): -0.62 GR | GR value (Flavopiridol [1]; 0.0001 µM): 0.986 GR | GR value (Flavopiridol [1]; 0.0003162 µM): 0.935 GR | GR value (Flavopiridol [1]; 0.001 µM): 1.03 GR | GR value (Flavopiridol [1]; 0.003162 µM): 1.01 GR | GR value (Flavopiridol [1]; 0.01 µM): 0.911 GR | GR value (Flavopiridol [1]; 0.03162 µM): 0.85 GR | GR value (Flavopiridol [1]; 0.1 µM): 0.735 GR | GR value (Flavopiridol [1]; 0.3162 µM): 0.285 GR | GR value (Flavopiridol [1]; 1 µM): -0.892 GR | GR value (THZ1; 0.0001 µM): 1.19 GR | GR value (THZ1; 0.0003162 µM): 0.925 GR | GR value (THZ1; 0.001 µM): 1.1 GR | GR value (THZ1; 0.003162 µM): 0.734 GR | GR value (THZ1; 0.01 µM): 0.455 GR | GR value (THZ1; 0.03162 µM): -0.545 GR | GR value (THZ1; 0.1 µM): -0.924 GR | GR value (THZ1; 0.3162 µM): -0.898 GR | GR value (THZ1; 1 µM): -0.945 GR | GR value ([2]; 0.0003162 µM): 1.06 GR | GR value ([2]; 0.001 µM): 0.943 GR | GR value ([2]; 0.003162 µM): 0.931 GR | GR value ([2]; 0.01 µM): 0.747 GR | GR value ([2]; 0.03162 µM): 0.376 GR | GR value ([2]; 0.1 µM): 0.224 GR | GR value ([2]; 0.3162 µM): 0.17 GR | GR value ([2]; 1 µM): 0.228 GR | GR value ([2]; 3.162 µM): 0.213 GR | GR value (YKL-5-124; 0.001 µM): 0.265 GR | GR value (YKL-5-124; 0.003162 µM): 0.245 GR | GR value (YKL-5-124; 0.01 µM): 0.149 GR | GR value (YKL-5-124; 0.03162 µM): 0.177 GR | GR value (YKL-5-124; 0.1 µM): 0.133 GR | GR value (YKL-5-124; 0.3162 µM): -0.0197 GR | GR value (YKL-5-124; 1 µM): 0.0836 GR | GR value (YKL-5-124; 3.162 µM): 0.0626 GR | GR value (YKL-5-124; 10 µM): -0.732 GR | GR value (BSJ-03-123; 0.001 µM): 0.928 GR | GR value (BSJ-03-123; 0.003162 µM): 0.827 GR | GR value (BSJ-03-123; 0.01 µM): 0.847 GR | GR value (BSJ-03-123; 0.03162 µM): 0.727 GR | GR value (BSJ-03-123; 0.1 µM): 0.637 GR | GR value (BSJ-03-123; 0.3162 µM): 0.403 GR | GR value (BSJ-03-123; 1 µM): 0.337 GR | GR value (BSJ-03-123; 3.162 µM): 0.277 GR | GR value (BSJ-03-123; 10 µM): -0.101 GR | GR value (LEE011/Ribociclib; 0.001 µM): 0.451 GR | GR value (LEE011/Ribociclib; 0.003162 µM): 0.229 GR | GR value (LEE011/Ribociclib; 0.01 µM): 0.361 GR | GR value (LEE011/Ribociclib; 0.03162 µM): 0.14 GR | GR value (LEE011/Ribociclib; 0.1 µM): 0.106 GR | GR value (LEE011/Ribociclib; 0.3162 µM): -0.116 GR | GR value (LEE011/Ribociclib; 1 µM): 0.15 GR | GR value (LEE011/Ribociclib; 3.162 µM): 0.292 GR | GR value (LEE011/Ribociclib; 10 µM): 0.293 GR | GR value ([3]; 0.001 µM): 0.797 GR | GR value ([3]; 0.003162 µM): 0.615 GR | GR value ([3]; 0.01 µM): 0.306 GR | GR value ([3]; 0.03162 µM): 0.178 GR | GR value ([3]; 0.1 µM): 0.197 GR | GR value ([3]; 0.3162 µM): 0.241 GR | GR value ([3]; 1 µM): 0.202 GR | GR value ([3]; 3.162 µM): 0.199 GR | GR value ([3]; 10 µM): -0.0587 GR | GR value ([4]; 0.0001 µM): 1.02 GR | GR value ([4]; 0.0003162 µM): 1.09 GR | GR value ([4]; 0.001 µM): 1.09 GR | GR value ([4]; 0.003162 µM): 1.08 GR | GR value ([4]; 0.01 µM): 1.02 GR | GR value ([4]; 0.03162 µM): -0.513 GR | increase in dead-cell fraction (Flavopiridol [5]; 0.0001 µM): -0.0007 | increase in dead-cell fraction (Flavopiridol [5]; 0.0003162 µM): 0.0052 | increase in dead-cell fraction (Flavopiridol [5]; 0.001 µM): -0.0013 | increase in dead-cell fraction (Flavopiridol [5]; 0.003162 µM): -0.0006 | increase in dead-cell fraction (Flavopiridol [5]; 0.01 µM): -0.0015 | increase in dead-cell fraction (Flavopiridol [5]; 0.03162 µM): 0.0024 | increase in dead-cell fraction (Flavopiridol [5]; 0.1 µM): -0.0007 | increase in dead-cell fraction (Flavopiridol [5]; 0.3162 µM): 0.0097 | increase in dead-cell fraction (Flavopiridol [5]; 1 µM): 0.25 | increase in dead-cell fraction ([6]; 0.001 µM): 0.0005 | increase in dead-cell fraction ([6]; 0.003162 µM): -0.0003 | increase in dead-cell fraction ([6]; 0.01 µM): 0.0039 | increase in dead-cell fraction ([6]; 0.03162 µM): 0.003 | increase in dead-cell fraction ([6]; 0.1 µM): 0.0014 | increase in dead-cell fraction ([6]; 0.3162 µM): 0.0018 | increase in dead-cell fraction ([6]; 1 µM): 0.0017 | increase in dead-cell fraction ([6]; 3.162 µM): 0.0048 | increase in dead-cell fraction ([6]; 10 µM): 0.0109
